assay: HILIC, Waters ACQUITY UPLC BEH Amide, 150 × 2.1 mm, 1.7 µm, 40 °C, 0.5 mL/min, estimated dead time 0.66 min; A: 5% water + 95% acetonitrile; B: 70% water + 30% acetonitrile + 10 mM ammonium formate, pH 6.5; gradient (min/%B) 0/0 2/0 20/70 23/70 24/0 31/0; conditions: stereoisomer not certain

| Structure (SMILES) | LC retention time |
| --- | --- |
| CN=C(N)N [METHYLGUANIDINE] | 8 min |
| CN(C)c1ccc(N)cc1 [N,N-DIMETHYL-1,4-PHENYLENEDIAMINE] | 0.91 min |
| CC(=O)OCC[N+](C)(C)C [ACETYLCHOLINE] | 6.38 min |
| CC(=O)C(C)O (stereo not given) [ACETOIN] | 8.78 min |
| OCC1OC(OC2C(CO)OC(O)C(O)C2O)C(O)C(O)C1O (stereo not given) [CELLOBIOSE] | 10.9 min |
| C[C@H](N)C(=O)O [L-ALANINE] | 9.76 min |
| OCC(O)C(O)CO (stereo not given) [ERYTHRITOL] | 3.99 min |
| NCCC[C@@H](N)C(=O)O [D-ORNITHINE] | 14.4 min |
| NC(CO)Cc1cnc[nH]1 (stereo not given) [HISTIDINOL] | 9.82 min |
| OCCNCCO [DIETHANOLAMINE] | 8.78 min |
| CCCC(=O)[O-] [BUTANOATE] | 1.29 min |
| NCc1ccccc1 [BENZYLAMINE] | 7.09 min |
| NC(=O)C=CC(=O)O [MALEAMATE] | 2.1 min |
| c1ccc2ncccc2c1 [QUINOLINE] | 0.91 min |
| O=c1cccc[nH]1 [2-HYDROXYPYRIDINE] | 1.56 min |
| COC(=O)CC(C)=O [METHYL ACETOACETATE] | 1.63 min |
| CCCCCCCCCCCCCCCC(=O)OC(CC(=O)[O-])C[N+](C)(C)C (stereo not given) [PALMITOYLCARNITINE] | 5.9 min |
| C[N+](C)(C)CCO [CHOLINE] | 7.51 min |
| NCCCC(=O)O [GAMMA-AMINOBUTYRATE] | 10.2 min |
| NCCCCN=C(N)N.O=S(=O)(O)O [AGMATINE SULFATE] | 14 min |
| CN1CCCC1c1cccnc1 (stereo not given) [NICOTINE] | 2.9 min |
| NCCCNCCCN [NORSPERMIDINE] | 8.25 min |
| NCCCCN [PUTRESCINE] | 0.94 min |
| CNCCc1c[nH]c2ccccc12 [N-METHYLTRYPTAMINE] | 6.64 min |
| NCCC(=O)O [BETA-ALANINE] | 10.4 min |

| Structure (SMILES) | LC retention time |
| --- | --- |
| NC1C(O)OC(CO)C(O)C1O (stereo not given) [GLUCOSAMINE] | 11.3 min |
| Cn1cnc(=N)c2[nH]cnc21 [3-METHYLADENINE] | 5.66 min |
| COc1cc(CCN)ccc1O [3-METHOXYTYRAMINE] | 0.84 min |
| CC(O)C(N)C(=O)O (stereo not given) [THREONINE] | 10.5 min |
| NC1CCSC1=O (stereo not given) [HOMOCYSTEINE THIOLACTONE] | 1.05 min |
| CCCCCC(=O)[O-] [HEXANOATE] | 0.91 min |
| C[n+]1cccc(C(N)=O)c1 [1-METHYLNICOTINAMIDE] | 8.27 min |
| Nc1ccccc1C(=O)[O-] [ANTHRANILATE] | 1.11 min |
| CCCCCCCCCCCCCC=CC(O)C(COP(=O)([O-])OCC[N+](C)(C)C)NC(=O)CCCCCCCCCCCCCCCCC (stereo not given) [SPHINGOMYELIN] | 5.7 min |
| COC(=O)CCCC(=O)O [MONOMETHYLGLUTARATE] | 2.48 min |
| CN(C)C(N)=NCCCC(N)C(=O)O (stereo not given) [N,N-DIMETHYLARGININE] | 13 min |
| NCC(O)c1ccccc1 (stereo not given) [PHENYLETHANOLAMINE] | 7.74 min |
| O=C1CCNC(=O)N1 [DIHYDROURACIL] | 1.45 min |
| NC(=O)c1cccnc1 [NICOTINAMIDE] | 1.38 min |
| CC1C(=O)Nc2ccccc21 (stereo not given) [3-METHYL-2-OXINDOLE] | 0.84 min |
| CC(=O)NCCCCN [N-ACETYLPUTRESCINE] | 8.45 min |
| CC(C)C(=O)O [ISOBUTYRATE] | 8.79 min |
| Nc1ccnc(=O)[nH]1 [CYTOSINE] | 5.15 min |
| NCCCCC(=O)O [5-AMINOPENTANOATE] | 10.4 min |
| C[N+](C)(C)CCCC(=O)[O-] [DEOXYCARNITINE] | 10.8 min |
| CCCCCCCCCCCC(=O)OC(CC(=O)[O-])C[N+](C)(C)C (stereo not given) [LAUROYLCARNITINE] | 6.24 min |
| CC(O)CC(=O)[O-] (stereo not given) [3-HYDROXYBUTANOATE] | 1.37 min |
| CC(C)CC(=O)C(=O)O [KETOLEUCINE] | 1.86 min |
| CNCC(=O)O [SARCOSINE] | 9.54 min |
| NCCc1ccccc1 [PHENETHYLAMINE] | 7 min |
